This is an account of results in patent publication US20260306491A1, “EGFR INHIBITOR FOR TREATING CANCERS COMPRISING ATYPICAL EGFR MUTATIONS” (ORIC Pharmaceuticals, Inc., priority 2023, published 2026).

In data set [1] the test system is EGFR exon 20 insertion mutated NSCLC. The data set is described as follows: Clinical study: duration of treatment and antitumor response, EGFR exon 20 insertion mutated NSCLC (Example 10). Type of data set: in vivo, human. Particulars: oral hemifumarate, one value per subject. The protocol:
A clinical study was conducted using Compound I in human subjects having non-small cell lung cancer (NSCLC) comprising EGFR exon 20 insertion mutations, HER2 exon 20 insertion mutations, or HER2 amplification or overexpression. A total of 50 human subjects having non-small cell lung cancer comprising one or more EGFR exon 20 insertion mutations, HER2 exon 20 insertion mutations, or HER2 amplification or overexpression were enrolled in the study as of Jul. 31, 2023 with data collected as of Sep. 26, 2023. The subjects were enrolled into one of ten dosing cohorts that were each orally administered Compound I in the form of a hemifumarate salt as shown in Table 13 (QD=once per day; BID=twice per day).
Duration of treatment and antitumor responses achieved in evaluable subjects with EGFR exon 20 insertion mutated NSCLC (dose level greater than or equal to 45 mg TDD and at least one post-baseline tumor assessment) who were administered Compound I in the form of a hemifumarate salt are set forth in Tables 19 and 20, respectively.

The test system of data set [2] is EGFR exon 20 mutated NSCLC with active CNS metastases. The data set is described as follows: Clinical evaluation in one subject (Example 11). To be noted: hemifumarate, 75 mg QD. Format: in vivo, human. The method, then:
A subject having EGFR exon 20 mutated non-small cell lung cancer was enrolled in a clinical study relating to Compound I. The cancer in the subject had been previously treated with chemotherapy (pemetrexed/cisplatin) and amivantamab. The subject presented with four active CNS non-target lesions that were previously untreated, and for which the subject had not undergone prior surgery or radiation treatment. The subject was enrolled in a dosing cohort that received 75 mg QD of Compound I in the form of a hemifumarate salt.

In data set [3] the test system is Ba/F3 cells expressing EGFR_L718V. The data set is described as follows: Cell viability (CellTiter-Glo). Format: cell-based. To be noted: Mus musculus, BaF3; 72 hours; average ± standard deviation; read-out: Absolute EC50 (50% growth). The method, then:
(§1) A cell-based assay was used to evaluate the potency of Compound I on cells where the growth of the cells is either driven by EGFR wild type (WT) or cells comprising atypical mutant EGFR proteins. Cell viability was assessed following treatment with compounds and the assay developed with CellTiterGlo (CTG) reagent that measures ATP levels in cells. Compound I was dissolved in DMSO to generate a 10 mM stock solution. Dosing solutions were prepared by serial dilution in DMSO followed by dilution in complete media to result in a 0.4% DMSO in the assay. Ba/F3 cells expressing EGFR mutants EGFR_G719S, EGFR_G724S, EGFR_L718Q, EGFR_L718V, EGFR_L858R/1L718Q, EGFR_L858R/1L718V, EGFR_del19/L792K. EGFR_del19/G796S were generated following co-transfection of the EGFR mutant of interest with PhiC31 integrase. Two days following transfection, the media was changed and replaced with media lacking mIL3 with the addition of human EGF (hEGF) as well as puromycin to select stable cell lines. After the cell lines were established genomic DNA (gDNA) was extracted to confirm the sequence of the construct of interest. The culture Media for Ba/F3 EGFR mutants was RPMI+10% FBS+2 mM L-Glut±10 ng/ml hEGF+0.5 pig/ml puromycin. The following reagents were used to conduct the assays: RPMI1640 with phenol red (Corning, Cat #: 15-040-CV); Fetal Bovine Serum (FBS) (Omega Scientific, Cat #: FR-11); Human Epidermal Growth Factor (hEGF) (Cell Signaling Cat #8916SC); L-Glutamine (Corning, Cat #: 25-005-CI); Puromycin (Gibco, Cat #A11138-03); assay media was the same as culture medium; CellTiter-Glo® 2.0 Cell Viability Assay (Promega, Cat #G9243), DMSO (Sigma, Cat #: D2660). The following equipment was used to conduct the assays: Bravo Liquid Handler (Agilent #G5523BA); and the following supplies: 96-well Non-Sterile Polypropylene V Bottom Plates (Corning, Cat #: 3363); 384-well Sterile White with Flat Clear Bottom Plates (Greiner, 781098); and PerkinElmer TopSeal-A Plus plate seal (Cat. #6050185).
(§2) Ba/F3 cell lines expressing either EGFR WT or mutant proteins were cultured in complete culture media at exponential growth phase for at least one week prior to assay. The different cell suspensions were counted and seeded into 384-well Sterile White Flat Clear Bottom Plates using a Bravo liquid handler, according to the appropriate cell number in 36 μl of media per well as follows: (a) Ba/F3-WT-EGFR: 2000 cells per well of a 384 well plate; (b) Ba/F3-G719S-EGFR: 2000 cells per well of a 384 well plate; (c) Ba/F3 G724S-EGFR: 1000 cells per well of a 384 well plate; (d) Ba/F3-L718Q-EGFR: 1000 cells per well of a 384 well plate; (e) Ba/F3-L718V-EGFR: 1000 cells per well of a 384 well plate; (f) Ba/F3-L858R/L718Q-EGFR: 1000 cells per well of a 384 well plate; (g) Ba/F3-L858R/L718V-EGFR: 1000 cells per well of a 384 well plate; (h) Ba/F3-del19/L792H-EGFR: 1000 cells per well of a 384 well plate; (i) Ba/F3-del19/G796S-EGFR: 1000 cells per well of a 384 well plate.
(§3) Compound I was solubilized in DMSO as 10 mM stock solutions. These were stored as aliquots at −80° C. and used only once after thawing. The highest concentration of Compound I in the final assay plate was 500 nM. To prepare the compound dilutions intermediate dilution plates were prepared using the Bravo liquid handler by performing 12-point ⅓-fold serial dilutions in DMSO to a final concentration of 250-fold the concentration in the final assay plate, followed by a 1/25 dilution into complete assay media. Compound dilutions in media were added to cells (final assay plate) by dispensing 4 μL into cells plated the same day in 36 μl of medium of media. Plates were placed in a 37° C., 5% CO2 incubator. Following 72 hours of incubation, plates were left to equilibrate at room temperature before the addition of 1:1 ratio of CTG 2.0 using the Bravo liquid handler. […]

For data set [4], the system named is Ba/F3 cells expressing EGFR_L718Q. The data set is described as follows: Cell viability (CellTiter-Glo). Format: cell-based. To be noted: Mus musculus, BaF3; 72 hours; average ± standard deviation; read-out: Absolute EC50 (50% growth). The protocol: as §1, §2, §3
Data set [5] deals with Ba/F3 cells expressing EGFR_del19/L792H. The data set is described as follows: Cell viability (CellTiter-Glo). Type of data set: cell-based. To be noted: Mus musculus, BaF3, 72 h, read-out: Absolute EC50 (50% growth). The method, then:
as §1, §2, §3

Data set [6] concerns Ba/F3 cells expressing EGFR WT. The data set is described as follows: Cell viability (CellTiter-Glo). Format: cell-based. Particulars: Mus musculus, BaF3; 72 hours; average ± standard deviation; read-out: Absolute EC50 (50% growth). The protocol:
as §1, §2, §3

Structures are written as SMILES. Where “and” joins values, the source holds several entries; their conditions need not be identical. Identical values can stand only once.

Take `C=CC(=O)Nc1cc(Nc2cc(N3OCC[C@@H]3c3cc(F)cc(F)c3)ncn2)c(OC)cc1N1CCC(N2CCN(C3CC3)CC2)CC1` [Compound I, N-[2-[4-(4-cyclopropyl-1-piperazinyl)-1-piperidinyl]-5-[[6-[(3R)-3-(3,5-difluorophenyl)-2-isoxazolidinyl]-4-pyrimidinyl]amino]-4-methoxyphenyl]-2-propenamide]: the Duration of treatment result in data set [1] (dosing cohort 30 BID) is “ongoing”; in data set [1] (dosing cohort 45 QD) it was 84 days and ongoing and 134 days and 28 days; in data set [1] (dosing cohort 60 QD) it was 33 days and ongoing and 20 days; in data set [1] (dosing cohort 75 QD), 90 days and 109 days and 20 days and ongoing; in data set [1] (dosing cohort 90 QD), 28 days and 52 days. Besides, the “Reduction of all target and non-target lesions” value in data set [2] (after cycle 1 (28 days)) is given as 60%; in data set [2] (end of cycle 2), 100%. The “Reduction of all 4 CNS lesions” value in data set [2] (after cycle 1, confirmed after cycle 2) came out at 100%. For the same compound, the “Duration of dosing at data cutoff” value in data set [2] (continuing) was “on dosing cycle 9”. Moreover, the EGFR-related adverse events result in data set [2] (data cutoff Sep. 26, 2023) was “Grade 2 mucositis and Grade 2 paronychia”. Also, the Tumor response result in data set [2] (end of cycle 2, confirmed) is listed as “complete response”. Also, the EC50 in data set [3] came to 0.9 ± 0.8 nM; in data set [4], 27.1 ± 6.4 nM; in data set [5] it was 2.5 ± 1.8 nM; in data set [6], 6.6 ± 4.3 nM.
